Assay type in all cases: functional
In one assay the test system is SK-MEL-28. Description: Growth inhibition of human SK-MEL-28 cells at 10 uM after 48 hrs by sulforhodamine B assay. The note with it: SK-MEL-28, 48 h, read-out: GI. A general note: Sulforhodamine B stains cellular protein and so reports cell mass.
The subject of another assay is TK-10. Description: Growth inhibition of human TK10 cells at 10 uM after 48 hrs by sulforhodamine B assay. The note with it: TK-10, 48 h, read-out: GI.
The subject of the next assay is SF-539. Description: Growth inhibition of human SF539 cells at 10 uM after 48 hrs by sulforhodamine B assay. The note with it: SF-539, 48 h, read-out: GI.
Another assay has as its system NCI-H23. Put plainly: Growth inhibition of human NCI-H23 cells at 10 uM after 48 hrs by sulforhodamine B assay. The note with it: NCI-H23, 48 h, read-out: GI.
The next assay deals with M14. Put plainly: Growth inhibition of human M14 cells at 10 uM after 48 hrs by sulforhodamine B assay. The following applies: M14, 48 h, read-out: GI.
Another assay has as its system SF-268. Put plainly: Growth inhibition of human SF268 cells at 10 uM after 48 hrs by sulforhodamine B assay. The following applies: SF-268, 48 h, read-out: GI.
In a further assay the test system is KM12. Description: Growth inhibition of human KM12 cells at 10 uM after 48 hrs by sulforhodamine B assay. The following applies: KM12, 48 h, read-out: GI.
For the next assay, the system named is CCRF-CEM. Put plainly: Growth inhibition of human CCRF-CEM cells at 10 uM after 48 hrs by sulforhodamine B assay. The note with it: read-out: GI.
The next assay concerns OVCAR-4. Description: Growth inhibition of human OVCAR4 cells at 10 uM after 48 hrs by sulforhodamine B assay. The following applies: OVCAR-4, 48 h, read-out: GI.
A further assay has as its system COLO 205. Put plainly: Growth inhibition of human COLO205 cells at 10 uM after 48 hrs by sulforhodamine B assay. The following applies: COLO 205, 48 h, read-out: GI.
For another assay, the system named is UACC-62. Description: Growth inhibition of human UACC62 cells at 10 uM after 48 hrs by sulforhodamine B assay. The note with it: UACC-62, 48 h, read-out: GI.
The next assay concerns BT-549. Description: Growth inhibition of human BT549 cells at 10 uM after 48 hrs by sulforhodamine B assay. The following applies: BT-549, 48 h, read-out: GI.
In a further assay the test system is SW-620. Put plainly: Growth inhibition of human SW620 cells at 10 uM after 48 hrs by sulforhodamine B assay. The following applies: SW-620, 48 h, read-out: GI.
The test system of the next assay is ACHN. Put plainly: Growth inhibition of human ACHN cells at 10 uM after 48 hrs by sulforhodamine B assay. The following applies: read-out: GI.
Another assay concerns CAKI-1. Put plainly: Growth inhibition of human CAKI-1 cells at 10 uM after 48 hrs by sulforhodamine B assay. The following applies: CAKI-1, 48 h, read-out: GI.
The next assay deals with U-251. Put plainly: Growth inhibition of human U251 cells at 10 uM after 48 hrs by sulforhodamine B assay. The following applies: U-251, 48 h, read-out: GI.

Regarding `CO[C@@H]1[C@@H](OC)N(S(=O)(=O)c2ccc(Cl)cc2)C(=O)N1S(=O)(=O)c1ccc(Cl)cc1` (relative stereo), the inhibition of growth at 10 µM with SK-MEL-28 was -7.4%; in the assay with TK-10, 7.51%; in the assay on SF-539 it was -15.2%; with NCI-H23 it was 8.09%; in the assay on M14, 6.23%; in the assay on SF-268, 1.84%. The inhibition of growth at 10 µM in the assay with KM12 was 3.47%; with CCRF-CEM, 15.5%; in the assay on OVCAR-4 it was 21.3%; with COLO 205 it was -3.4%; in the assay on UACC-62 it was 42.1%; in the assay with BT-549 it was 2.35%. The inhibition of growth at 10 µM in the assay with SW-620 was 1.4%; in the assay with ACHN it was 9.71%; in the assay with CAKI-1, 67.5%; in the assay with U-251, 6.07%.
